In patent US20090163516A1, “CARBOXAMIDES FOR CONTROLLING UNDESIRED MICRO-ORGANISMS IN PLANT PROTECTION” (Bayer Cropscience AG, priority 2005, published 2009):
Values belong to the compound of their own block, whether it stands above or below them.

Experiments:
Alternaria solani = experiment: Alternaria test (tomato)/protective; assay type: in vivo; details: 168 h, young tomato plants sprayed, inoculated one day after treatment, evaluation 7 days after inoculation, read-out: Efficacy in %
Procedure: (§1) To produce a suitable preparation of active compound, 1 part by weight of active compound is mixed with the stated amounts of solvent and emulsifier, and the concentrate is diluted with water to the desired concentration.
To test for protective activity, young tomato plants are sprayed with the active compound preparation at the stated application rate. One day after the treatment, the plants are inoculated with a spore suspension of Alternaria solani and then remain at 100% relative humidity and 20° C. for 24 h. The plants then remain at 96% relative atmospheric humidity and a temperature of 20° C.
(§2) Evaluation is carried out 7 days after the inoculation. 0% means an efficacy which corresponds to that of the control, whereas an efficacy of 100% means that no infection is observed.

[1] = logP determination by HPLC on a reverse-phase column (EEC Directive 79/831 Annex V.A8); assay type: physicochemical; details: reverse-phase C18 HPLC column; pH 2.3; HPLC reverse-phase C 18, 43° C., 0.1% aqueous phosphoric acid and acetonitrile
Procedure: The determination is carried out in the acidic range at pH 2.3 using the mobile phases 0.1% aqueous phosphoric acid and acetonitrile; linear gradient from 10% acetonitrile to 90% acetonitrile.

Sphaerotheca fuliginea = experiment: Sphaerotheca test (cucumber)/protective; assay type: in vivo; details: 500 ppm; young cucumber plants sprayed, inoculated one day after treatment; evaluation 7 days after inoculation
Procedure: as §1
To test for protective activity, young cucumber plants are sprayed with the active compound preparation at the stated application rate. One day after the treatment, the plants are inoculated with a spore suspension of Sphaerotheca fuliginea. The plants are then placed in a greenhouse at 70% relative atmospheric humidity and a temperature of 23° C.
as §2

Pyrenophora teres = Pyrenophora teres test (barley)/protective; assay type: in vivo; details: 1000 ppm; young barley plants sprayed; evaluation 8 days after inoculation
Procedure: as §1
To test for protective activity, young plants are sprayed with the active compound preparation at the stated application rate. After the spray coating has dried on, the plants are sprayed with a conidia suspension of Pyrenophora teres. The plants remain in an incubation cabin at 20° C. and 100% relative atmospheric humidity for 48 hours. The plants are then placed in a greenhouse at a temperature of about 20° C. and a relative atmospheric humidity of about 80%.
Evaluation is carried out 8 days after the inoculation. 0% means an efficacy which corresponds to that of the control, whereas an efficacy of 100% means that no infection is observed.

Podosphaera leucotricha = experiment: Podosphaera test (apple)/protective; assay type: in vivo; details: 100 ppm; young apple plants sprayed; evaluation 10 days after inoculation
Procedure: (§3) To produce a suitable preparation of active compound, 1 part by weight of active compound is mixed with the stated amounts of solvents and emulsifier, and the concentrate is diluted with water to the desired concentration.
To test for protective activity, young plants are sprayed with the active compound preparation at the stated application rate. After the spray coating has dried on, the plants are inoculated with an aqueous spore suspension of the apple mildew pathogen Podosphaera leucotricha. The plants are then placed in a greenhouse at about 23° C. and a relative atmospheric humidity of about 70%.
(§4) Evaluation is carried out 10 days after the inoculation. 0% means an efficacy which corresponds to that of the control, whereas an efficacy of 100% means that no infection is observed.

Venturia inaequalis = experiment: Venturia test (apple)/protective; assay type: in vivo; details: 100 ppm; young apple plants sprayed; evaluation 10 days after inoculation
Procedure: as §3
To test for protective activity, young plants are sprayed with the active compound preparation at the stated application rate. After the spray coating has dried on, the plants are inoculated with an aqueous conidia suspension of the apple scab pathogen Venturia inaequalis and then remain in an incubation cabin at about 20° C. and 100% relative atmospheric humidity for 1 day. The plants are then placed in a greenhouse at about 21° C. and a relative atmospheric humidity of about 90%.
as §4

Botrytis cinerea = experiment: Botrytis test (bean)/protective; assay type: in vivo; details: 48 h, young bean plants sprayed, size of infected areas two days after inoculation, read-out: Efficacy in %
Procedure: as §3
To test for protective activity, young plants are sprayed with the active compound preparation at the stated application rate. After the spray coating has dried on, two small pieces of agar colonized by Botrytis cinerea are placed onto each leaf. The inoculated plants are placed in a dark chamber at about 20° C. and 100% relative atmospheric humidity.
Two days after the inoculation, the size of the infected areas on the leaves is evaluated. 0% means an efficacy which corresponds to that of the control, whereas an efficacy of 100% means that no infection is observed.

SMILES: O=C(c1ccccc1Cl)N(C(=O)c1ccccc1Cl)c1ncncc1-c1ccc(OC(F)(F)F)cc1
pest or weed control at 500 ppm (Alternaria solani): 70%

SMILES: Cc1ccsc1C(=O)Nc1ncncc1-c1ccc(OC(F)(F)F)cc1
pest or weed control at 500 ppm (Alternaria solani): 70%

chromatographic logP [1]: 2.57
SMILES: O=C(Nc1ncncc1-c1ccc(Cl)cc1)c1ccccc1C(F)(F)F [Example 1, N-[5-(4-chlorophenyl)-4-pyrimidinyl]-2-(trifluoromethyl)benzamide]

chromatographic logP [1]: 2.85
SMILES: Cc1nc(C(F)(F)F)c(C(=O)Nc2ncncc2-c2ccc(Cl)c(Cl)c2)s1 [Example 2, N-[5-(3,4-dichlorophenyl)-4-pyrimidinyl]-2-methyl-4-(trifluoromethyl)-1,3-thiazole-5-carboxamide]

chromatographic logP [1]: 2.92
SMILES: O=C(Nc1ncncc1-c1ccc(Cl)c(Cl)c1)c1ccccc1C(F)(F)F [Example 6]

chromatographic logP [1]: 2.61
SMILES: O=C(Nc1ncncc1-c1ccc(Br)cc1)c1ccccc1I [Example 7]

chromatographic logP [1]: 2.89
SMILES: O=C(Nc1ncncc1-c1ccc(Cl)c(Cl)c1)c1ccccc1I [Example 8]

chromatographic logP [1]: 2.46
SMILES: O=C(Nc1ncncc1-c1ccc(Br)cc1)c1ccccc1Cl [Example 9]

chromatographic logP [1]: 2.73
SMILES: O=C(Nc1ncncc1-c1ccc(Cl)c(Cl)c1)c1ccccc1Cl [Example 10]

chromatographic logP [1]: 4.12
SMILES: O=C(c1ccccc1Cl)N(C(=O)c1ccccc1Cl)c1ncncc1-c1ccc(C(F)(F)F)cc1 [Example 12]

chromatographic logP [1]: 2.62
SMILES: O=C(Nc1ncncc1-c1ccc(C(F)(F)F)cc1)c1ccccc1Cl [Example 13]

chromatographic logP [1]: 2.73
SMILES: O=C(c1ccccc1Cl)N(C(=O)c1ccccc1Cl)c1ncncc1-c1ccc(Br)cc1 [Example 14]

chromatographic logP [1]: 2.46
SMILES: O=C(c1ccccc1Cl)N(C(=O)c1ccccc1Cl)c1ncncc1-c1ccc(Cl)c(Cl)c1 [Example 15]

chromatographic logP [1]: 2.46
SMILES: Cn1cc(C(=O)Nc2ncncc2-c2ccc(Cl)c(Cl)c2)c(C(F)(F)F)n1 [Example 19]

chromatographic logP [1]: 0.87
SMILES: Nc1ncncc1-c1ccc(Cl)c(Cl)c1 [III-1, 5-(3,4-dichlorophenyl)-4-pyrimidinylamine]

SMILES: O=C(Nc1ncncc1-c1ccc(Cl)cc1)c1ccccc1C(F)(F)F [drawing 72]
Efficacy in % (Sphaerotheca fuliginea): 78%

SMILES: O=C(Nc1ncncc1-c1ccc(Br)cc1)c1ccccc1I [drawing 73]
Efficacy in % (Sphaerotheca fuliginea): 95%

SMILES: O=C(Nc1ncncc1-c1ccc(Cl)c(Cl)c1)c1ccccc1I [drawing 74]
Efficacy in % (Sphaerotheca fuliginea): 100%

SMILES: O=C(Nc1ncncc1-c1ccc(Cl)c(Cl)c1)c1ccccc1Cl [drawing 75]
Efficacy in % (Sphaerotheca fuliginea): 90%

SMILES: O=C(Nc1ncncc1-c1ccc(OC(F)(F)F)cc1)c1ccccc1I [drawing 76]
Efficacy in % (Sphaerotheca fuliginea): 95%

SMILES: Cn1cc(C(=O)Nc2ncncc2-c2ccc(Cl)c(Cl)c2)c(C(F)(F)F)n1 [drawing 77]
Efficacy in % (Sphaerotheca fuliginea): 95%

SMILES: O=C(Nc1ncncc1-c1ccc(Cl)cc1)c1ccccc1C(F)(F)F [drawing 78]
pest or weed control at 500 ppm (Alternaria solani): 100%

SMILES: O=C(Nc1ncncc1-c1ccc(Br)cc1)c1ccccc1I [drawing 79]
pest or weed control at 500 ppm (Alternaria solani): 100%

SMILES: O=C(Nc1ncncc1-c1ccc(Cl)c(Cl)c1)c1ccccc1I [drawing 80]
pest or weed control at 500 ppm (Alternaria solani): 100%

SMILES: O=C(Nc1ncncc1-c1ccc(Br)cc1)c1ccccc1Cl [drawing 81]
pest or weed control at 500 ppm (Alternaria solani): 100%

SMILES: O=C(Nc1ncncc1-c1ccc(Cl)c(Cl)c1)c1ccccc1Cl [drawing 82]
pest or weed control at 500 ppm (Alternaria solani): 100%

SMILES: O=C(Nc1ncncc1-c1ccc(OC(F)(F)F)cc1)c1ccccc1I [drawing 83]
pest or weed control at 500 ppm (Alternaria solani): 100%

SMILES: O=C(c1ccccc1Cl)N(C(=O)c1ccccc1Cl)c1ncncc1-c1ccc(C(F)(F)F)cc1 [drawing 84]
pest or weed control at 500 ppm (Alternaria solani): 100%

SMILES: O=C(Nc1ncncc1-c1ccc(C(F)(F)F)cc1)c1ccccc1Cl [drawing 85]
pest or weed control at 500 ppm (Alternaria solani): 100%

SMILES: O=C(c1ccccc1Cl)N(C(=O)c1ccccc1Cl)c1ncncc1-c1ccc(Br)cc1 [drawing 86]
pest or weed control at 500 ppm (Alternaria solani): 71%

SMILES: O=C(c1ccccc1Cl)N(C(=O)c1ccccc1Cl)c1ncncc1-c1ccc(Cl)c(Cl)c1 [drawing 87]
pest or weed control at 500 ppm (Alternaria solani): 95%

SMILES: O=C(Nc1ncncc1-c1ccc(OC(F)(F)F)cc1)c1ccccc1Cl [drawing 89]
pest or weed control at 500 ppm (Alternaria solani): 95%

SMILES: Cn1cc(C(=O)Nc2ncncc2-c2ccc(Cl)c(Cl)c2)c(C(F)(F)F)n1 [drawing 90]
pest or weed control at 500 ppm (Alternaria solani): 95%

SMILES: O=C(Nc1ncncc1-c1ccc(Br)cc1)c1ccccc1I [drawing 92]
Efficacy in % (Pyrenophora teres): 89%

SMILES: O=C(Nc1ncncc1-c1ccc(Cl)c(Cl)c1)c1ccccc1I [drawing 93]
Efficacy in % (Pyrenophora teres): 100%

SMILES: O=C(Nc1ncncc1-c1ccc(Br)cc1)c1ccccc1I [drawing 94]
Efficacy in % (Podosphaera leucotricha): 87%

SMILES: O=C(Nc1ncncc1-c1ccc(Cl)c(Cl)c1)c1ccccc1I [drawing 95]
Efficacy in % (Podosphaera leucotricha): 93%

SMILES: O=C(Nc1ncncc1-c1ccc(C(F)(F)F)cc1)c1ccccc1Cl [drawing 96]
Efficacy in % (Podosphaera leucotricha): 93%

SMILES: Cc1nc(C(F)(F)F)c(C(=O)Nc2ncncc2-c2ccc(Cl)c(Cl)c2)s1 [drawing 97]
Efficacy in % (Venturia inaequalis): 95%

SMILES: O=C(Nc1ncncc1-c1ccc(Cl)c(Cl)c1)c1ccccc1C(F)(F)F [drawing 98]
Efficacy in % (Venturia inaequalis): 95%

SMILES: Cc1nc(C(F)(F)F)c(C(=O)Nc2ncncc2-c2ccc(Cl)c(Cl)c2)s1 [drawing 99]
pest or weed control at 500 ppm (Botrytis cinerea): 91%

SMILES: O=C(Nc1ncncc1-c1ccc(Cl)c(Cl)c1)c1ccccc1C(F)(F)F [drawing 100]
pest or weed control at 500 ppm (Botrytis cinerea): 80%

SMILES: O=C(Nc1ncncc1-c1ccc(Cl)c(Cl)c1)c1ccccc1I [drawing 101]
pest or weed control at 500 ppm (Botrytis cinerea): 96%

SMILES: O=C(Nc1ncncc1-c1ccc(Br)cc1)c1ccccc1Cl [drawing 102]
pest or weed control at 500 ppm (Botrytis cinerea): 99%

SMILES: O=C(Nc1ncncc1-c1ccc(Cl)c(Cl)c1)c1ccccc1Cl [drawing 103]
pest or weed control at 500 ppm (Botrytis cinerea): 91%

SMILES: O=C(Nc1ncncc1-c1ccc(OC(F)(F)F)cc1)c1ccccc1I [drawing 104]
pest or weed control at 500 ppm (Botrytis cinerea): 89%

SMILES: O=C(Nc1ncncc1-c1ccc(C(F)(F)F)cc1)c1ccccc1Cl [drawing 105]
pest or weed control at 500 ppm (Botrytis cinerea): 100%

SMILES: O=C(Nc1ncncc1-c1ccc(OC(F)(F)F)cc1)c1ccccc1Cl [drawing 106]
pest or weed control at 500 ppm (Botrytis cinerea): 79%
